Measurements from the supplement of paper PMC8617591.

Experiments:
[1] = test system: Mycobacterium tuberculosis Erdman (autoluminescent); experiment: total FIC50 (Loewe) at 50% inhibition, three-drug combination (log2); higher = more antagonistic
Description: (§1)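 DiaMOND equipotent three-drug combination dose responses (10 doses, 1.5- or 2-fold spacing, centred on IC90) against autoluminescent M. tuberculosis Erdman in 8 in vitro models. Read-out is OD600, or luminescence for the intracellular and dormancy models, normalised to untreated wells. Hill-fit Einf, AUC25 and GRinf are potency metrics; FIC50 and FIC90 are total Loewe fractional inhibitory concentrations as log2 (negative = synergy).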

[2] = test system: Mycobacterium tuberculosis Erdman (autoluminescent); experiment: total FIC90 (Loewe) at 90% inhibition, three-drug combination (log2); higher = more antagonistic
Description: as §1

[3] = test system: Mycobacterium tuberculosis Erdman (autoluminescent); experiment: Einf, fitted maximum growth inhibition of three-drug combination (fraction); higher = stronger maximal inhibition
Description: as §1

[4] = test system: Mycobacterium tuberculosis Erdman (autoluminescent); experiment: AUC25, normalised area under dose response up to IC25 (three-drug combination) (fraction (0-1)); higher = more potent at low dose
Description: as §1

[5] = test system: Mycobacterium tuberculosis Erdman (autoluminescent); experiment: GRinf, maximum normalised growth rate inhibition (three-drug combination) (unitless (-1 to 1)); higher = less effect (negative = killing)
Description: as §1

COc1nc2ccc(Br)cc2cc1[C@@H](c1ccccc1)[C@@](O)(CCN(C)C)c1cccc2ccccc12 [bedaquiline] + O=[N+]([O-])c1cn2c(n1)OC[C@@H](OCc1ccc(OC(F)(F)F)cc1)C2 [pretomanid] + CO[C@H]1/C=C/O[C@@]2(C)Oc3c(C)c(O)c4c(O)c(c(/C=N/N5CCN(C)CC5)c(O)c4c3C2=O)NC(=O)/C(C)=C\C=C\[C@H](C)[C@H](O)[C@@H](C)[C@@H](O)[C@@H](C)[C@H](OC(C)=O)[C@@H]1C [rifampicin]
Settings	AUC25, [4]	Einf, [3]	GRinf, [5]	total FIC50, [1]	total FIC90, [2]
in vitro model: acidic pH 5.7, time point: constant (~7 days, model-specific)	0.111	0.938	-0.379	0.68	–
in vitro model: acidic pH 5.7, time point: terminal (~4-5 doublings, model-specific)	0.0826	0.993	-0.38	0.724	0.613
in vitro model: intracellular J774, time point: constant = terminal	–	0.978	-0.416	–	-0.222

Settings	AUC25, [4]	Einf, [3]	GRinf, [5]	total FIC50, [1]	total FIC90, [2]
in vitro model: butyrate, time point: constant (~7 days, model-specific)	0.106	0.931	-0.0326	0.367	0.71
in vitro model: butyrate, time point: terminal (~4-5 doublings, model-specific)	0.0986	0.977	-0.041	0.237	0.69
in vitro model: cholesterol 0.05 mM, time point: constant (~7 days, model-specific)	0.116	0.764	-0.188	0.697	–
in vitro model: cholesterol 0.05 mM, time point: terminal (~4-5 doublings, model-specific)	0.0763	0.813	0.0382	0.812	-0.454
in vitro model: cholesterol-high 0.2 mM, time point: constant (~7 days, model-specific)	0.0584	0.921	-0.229	1.22	1.66
in vitro model: cholesterol-high 0.2 mM, time point: terminal (~4-5 doublings, model-specific)	0.0574	1	-0.652	1.17	0.914
in vitro model: dormancy (butyrate + nitrate, low O2), time point: constant (~7 days, model-specific)	0.0611	0.9	0.255	0.0572	-0.559
in vitro model: dormancy (butyrate + nitrate, low O2), time point: terminal (~4-5 doublings, model-specific)	0.0439	0.982	-0.104	0.00851	-0.259
in vitro model: standard 7H9 glycerol, time point: constant = terminal	0.0794	0.937	-0.1	0.14	-0.371
in vitro model: valerate, time point: constant (~7 days, model-specific)	0.103	0.897	-0.11	1.04	–
in vitro model: valerate, time point: terminal (~4-5 doublings, model-specific)	0.0424	0.951	-0.0825	1.09	0.566

COc1nc2ccc(Br)cc2cc1[C@@H](c1ccccc1)[C@@](O)(CCN(C)C)c1cccc2ccccc12 [bedaquiline] + O=[N+]([O-])c1cn2c(n1)OC[C@@H](OCc1ccc(OC(F)(F)F)cc1)C2 [pretomanid] + NC(=O)c1cnccn1 [pyrazinamide]
Settings	AUC25, [4]	Einf, [3]	GRinf, [5]	total FIC50, [1]	total FIC90, [2]
in vitro model: acidic pH 5.7, time point: constant (~7 days, model-specific)	0.0919	0.881	-0.623	0.152	-0.764
in vitro model: acidic pH 5.7, time point: terminal (~4-5 doublings, model-specific)	0.0867	0.983	-0.421	0.197	0.0646
in vitro model: intracellular J774, time point: constant = terminal	–	0.972	-0.386	–	0.176

Settings	AUC25, [4]	Einf, [3]	GRinf, [5]	total FIC50, [1]	total FIC90, [2]
in vitro model: butyrate, time point: constant (~7 days, model-specific)	0.119	0.946	-0.193	-0.0189	1.37
in vitro model: butyrate, time point: terminal (~4-5 doublings, model-specific)	0.102	0.978	-0.539	0.212	1.21
in vitro model: cholesterol 0.05 mM, time point: constant (~7 days, model-specific)	0.115	0.748	-0.231	–	–
in vitro model: cholesterol 0.05 mM, time point: terminal (~4-5 doublings, model-specific)	0.106	0.909	-0.185	0.657	–
in vitro model: cholesterol-high 0.2 mM, time point: constant (~7 days, model-specific)	0.0759	0.934	-0.252	0.548	–
in vitro model: cholesterol-high 0.2 mM, time point: terminal (~4-5 doublings, model-specific)	0.0678	0.998	-0.58	0.646	0.318
in vitro model: dormancy (butyrate + nitrate, low O2), time point: constant (~7 days, model-specific)	0.043	0.896	0.257	-0.949	-1.45
in vitro model: dormancy (butyrate + nitrate, low O2), time point: terminal (~4-5 doublings, model-specific)	0.0578	0.983	-0.0996	-1.05	-1.31
in vitro model: standard 7H9 glycerol, time point: constant = terminal	0.0709	0.957	-0.0903	-0.132	–
in vitro model: valerate, time point: constant (~7 days, model-specific)	0.0952	0.866	-0.0433	0.178	–
in vitro model: valerate, time point: terminal (~4-5 doublings, model-specific)	0.062	0.938	-0.0146	0.143	-0.0602

CC(C)/N=c1\cc2n(-c3ccc(Cl)cc3)c3ccccc3nc-2cc1Nc1ccc(Cl)cc1 [clofazimine] + CC(=O)NC[C@H]1CN(c2ccc(N3CCOCC3)c(F)c2)C(=O)O1 [linezolid] + CO[C@H]1/C=C/O[C@@]2(C)Oc3c(C)c(O)c4c(O)c(c(/C=N/N5CCN(C6CCCC6)CC5)c(O)c4c3C2=O)NC(=O)/C(C)=C\C=C\[C@H](C)[C@H](O)[C@@H](C)[C@@H](O)[C@@H](C)[C@H](OC(C)=O)[C@@H]1C [rifapentine]
Settings	AUC25, [4]	Einf, [3]	GRinf, [5]	total FIC50, [1]	total FIC90, [2]
in vitro model: acidic pH 5.7, time point: constant (~7 days, model-specific)	0.0854	0.874	-0.12	0.564	–
in vitro model: acidic pH 5.7, time point: terminal (~4-5 doublings, model-specific)	0.0814	0.98	-0.151	0.455	0.39
in vitro model: intracellular J774, time point: constant = terminal	–	0.926	-0.19	–	-0.239

Settings	AUC25, [4]	Einf, [3]	GRinf, [5]	total FIC50, [1]	total FIC90, [2]
in vitro model: butyrate, time point: constant (~7 days, model-specific)	0.0929	0.918	-0.00889	0.328	1.2
in vitro model: butyrate, time point: terminal (~4-5 doublings, model-specific)	0.0457	0.943	0.0319	0.369	-0.292
in vitro model: cholesterol 0.05 mM, time point: constant (~7 days, model-specific)	0.126	0.731	-0.0827	-0.42	–
in vitro model: cholesterol 0.05 mM, time point: terminal (~4-5 doublings, model-specific)	0.136	0.942	-0.212	0.236	0.563
in vitro model: cholesterol-high 0.2 mM, time point: constant (~7 days, model-specific)	0.114	0.928	-0.916	0.312	1.27
in vitro model: cholesterol-high 0.2 mM, time point: terminal (~4-5 doublings, model-specific)	0.124	1	-0.975	0.111	0.601
in vitro model: dormancy (butyrate + nitrate, low O2), time point: constant (~7 days, model-specific)	0.0702	0.914	0.025	1.42	1.23
in vitro model: dormancy (butyrate + nitrate, low O2), time point: terminal (~4-5 doublings, model-specific)	0.046	0.99	-0.23	1.03	0.905
in vitro model: standard 7H9 glycerol, time point: constant = terminal	0.105	0.945	0.00644	0.0429	0.805
in vitro model: valerate, time point: constant (~7 days, model-specific)	0.113	0.883	-0.112	0.974	–
in vitro model: valerate, time point: terminal (~4-5 doublings, model-specific)	0.0863	0.95	-0.00893	0.608	1.24
